Measured values published in patent US4983740A, “Process for 1,4-dihydropyridine compounds” (Adir et Compagnie, priority 1986, dated 1991).
Counter-ions that a name gives are not always drawn.

Columns and labels:
[1] = system: conscious spontaneous hypertensive rats (SHR); experiment: Short-term studies in conscious spontaneous hypertensive rats (oral, systolic arterial pressure); assay type: in vivo, rat (SHR); conditions: 3 mg/kg
Description: Short-term Studies in Conscious Spontaneous Hypertensive Rats (SHR)
Male spontaneous hypertensive rats weighing 270 to 320 g, aged 16 to 24 weeks, are anesthetized with ether. A polyethylene catheter is introduced into the femoral artery and moved forward to the level of the tail. The pressure in the femoral artery is recorded with a Statham® P23 sensor, on a Gould® 2400 recorder. The animals are treated at least one hour after the operation. The compounds are administered orally, in the dissolved form. The doses administered are expressed in mg/kg of base. The compounds of the invention were compared with amlodipine and with another 1,4-dihydropyridine derivative reference compound, nifedipine.

[2] = system: rat aorta; experiment: In vitro activity in rat aorta stimulated by potassium ions; assay type: cell-based, rat (male Wistar); conditions: 1 h; rat aorta rings, KCl 80 mM stimulation, cumulative doses at 60 minutes intervals
Description: Determination of the Vitro Activity in Rat Aorta Stimulated by Potassium Ions
This trial was carried out using isolated organs removed from male Wistar rats weighing 300 to 400 g, kept under a water diet 18 hours before sacrificing.
After quickly sacrificing the animal, the aorta (at the level of the arch of the aorta) is removed and dissected into 2 mm-long rings; the endothelium is removed mechanically. After an equilibration period of 1 hour in a physiological solution consisting of (mM): NaCl 112, KCl 5, KH2 PO4 1, MgSO4 1.2, CaCl2 2.5, NaHCO3 25 and glucose 11.5, the preparations are stimulated with a potassium-rich solution. The latter consists of (mM):NaCl 37, KCl 80, KH2 PO4 1, MgSO4 1.2, CaCl2 2.5, NaHCO3 25 and glucose 11.5. This solution has a pH of 7.4 at 37° C.
After 15 minutes of stabilization, the compounds to be tested are then added (sample volume 0.2 ml) at cumulative doses at 60 minutes intervals. From the relaxation values obtained, it is possible to construct a doseresponse curve, leading to the calculation of an IC50 value (expressed in M).

[3] = system: conscious dogs with renal hypertension; experiment: Study in conscious dogs with renal hypertension (oral, mean arterial pressure); assay type: in vivo, dog (Mongol); conditions: digestive route
Source text: Study in Conscious Dogs with Renal Hypertension
Mongol dogs weighing 20 to 25 kg are used. A Silastic® catheter, inserted under anesthesia at the level of the abdominal aorta, left in position permanently, enables the arterial pressure to be determined subsequently in the conscious animal.
Arterial hypertension is induced by a second operation, under anesthesia, consisting in constricting the left renal artery with a clip, decreasing the flow rate therein by approximately 70%, the left kidney is also covered with a latex capsule in order to restrict circulatory compensations; the contralateral kidney is left in position.
The systolic, diastolic and mean arterial pressures are determined with a Statham® P23 pressure sensor attached to the Silastic® catheter and connected to a Gould® "pressure-processor". The compounds are tested in animals which became hypertensive in the conscious state at least one week after the second operation. The arterial pressure is continuously recorded up to 7 hours after the treatment and then at 24 hours.
The compounds to be tested are administered by the digestive route through gastric tubing, in the form of a solution which may be aqueous, aqueous/alcoholic and the like, depending on the solubility of the products.
The doses administered are expressed in mg base per body weight kg.

[4] = system: conscious spontaneous hypertensive rats (SHR); experiment: Long-term studies in conscious spontaneous hypertensive rats (oral, single daily dose, systolic arterial pressure); assay type: in vivo, rat (SHR); conditions: 1 mg/kg/d
Description: Long-term Studies in Conscious Spontaneous Hypertensive rats (SHR) Male rats weighing 280 to 300 g, aged 16 weeks, are used in this study. The systolic arterial pressure is determined with a Rhema multichannel 8,000® apparatus, according to the indirect method, at the tail of the animal. The compounds to be tested are administered orally, in a single daily dose. Determinations of arterial pressure are carried out each day just before the treatment. Amlodipine was also studied under the same conditions.

SMILES	Systolic arterial pressure after treatment, Δ mm Hg, 4 h [1] [mm Hg]	Systolic arterial pressure after treatment, Δ mm Hg, 6 h [1] [mm Hg]	IC50 [2] [nM]	Systolic arterial pressure after treatment, Δ mm Hg, 24 h [1] [mm Hg]	further results
CCOC(=O)C1=C(COCCOCCN)NC(C)=C(C(=O)OC)C1c1cccc2c1OCO2 (racemic) [EXAMPLE 2, (4R,S)-2-{[2-(2-Aminoethoxy)ethoxy]methyl}-3-ethoxycarbonyl-5-methoxycarbonyl-6-methyl-4-(2,3-methylenedioxyphenyl)-1,4-dihydropyridine]	-13	-16	30		
CCOC(=O)C1=C(COCCOCCN)NC(C)=C(C(=O)OC)C1c1ccccc1Cl (racemic) [EXAMPLE 5, (4R,S)-2-{[2-(2-Aminoethoxy)ethoxy]methyl}-4-(2-chlorophenyl)-3-ethoxycarbonyl-5-methoxycarbonyl-6-methyl-1,4-dihydropyridine fumarate]	-49	-49	65	-22	Mean arterial pressure after treatment, Δ mm Hg, 4 h ([3]; 0.5 mg/kg): -32 mm Hg; Mean arterial pressure after treatment, Δ mm Hg, 7 h ([3]; 0.5 mg/kg): -25 mm Hg; Mean arterial pressure after treatment, Δ mm Hg, 4 h ([3]; 1.0 mg/kg): -48 mm Hg; Mean arterial pressure after treatment, Δ mm Hg, 7 h ([3]; 1.0 mg/kg): -39 mm Hg; Mean arterial pressure after treatment, Δ mm Hg, 24 h ([3]; 1.0 mg/kg): -10 mm Hg
CCOC(=O)C1=C(COCCOCCN(C)Cc2ccccc2)NC(C)=C(C(=O)OC)C1c1ccccc1Cl (racemic) [EXAMPLE 7, (4R,S)-2-[{2-[2-(N-Methyl-N-benzylamino)ethoxy]ethoxy}-methyl]-4-(2-chlorophenyl)-3-ethoxycarbonyl-5-methoxycarbonyl-6-methyl-1,4-dihydropyridine tartrate]	-22	-16	4	-8	Mean arterial pressure after treatment, Δ mm Hg, 4 h ([3]; 0.5 mg/kg): -7 mm Hg; Mean arterial pressure after treatment, Δ mm Hg, 7 h ([3]; 0.5 mg/kg): -3 mm Hg; Mean arterial pressure after treatment, Δ mm Hg, 24 h ([3]; 0.5 mg/kg): 0 mm Hg
C=CCN(CC=C)CCOCCOCC1=C(C(=O)OCC)C(c2ccccc2Cl)C(C(=O)OC)=C(C)N1 (racemic) [EXAMPLE 8, (4R,S)-4-(2-Chlorophenyl)-2-[{2-[2-(N,N-diallylamino)ethoxy]ethoxy}methyl]-3-ethoxycarbonyl-5-methoxycarbonyl-6-methyl-1,4-dihydropyridine hemifumarate]	-21	-19	6.5		
CCOC(=O)C1=C(CCCCCCCN)NC(C)=C(C(=O)OC)C1c1ccccc1Cl (racemic) [EXAMPLE 12, (4R,S)-2-(7-Aminoheptyl)-4-(2-chlorophenyl)-3-ethoxycarbonyl-5-methoxycarbonyl-6-methyl-1,4-dihydropyridine fumarate]	-23	-30	25	-21	Mean arterial pressure after treatment, Δ mm Hg, 4 h ([3]; 2.0 mg/kg): -22 mm Hg; Mean arterial pressure after treatment, Δ mm Hg, 7 h ([3]; 2.0 mg/kg): -32 mm Hg
COC(=O)C1=C(C)NC(COCCOCCN)=C(C(=O)OC(C)C)C1c1cccc(C(F)(F)F)c1Cl (racemic) [EXAMPLE 35, (4R,S)-2-{[2-(2-Aminoethoxy)ethoxy]methyl}-4-(2-chloro-3-trifluoromethylphenyl)-3-isopropoxycarbonyl-5-methoxycarbonyl-6-methyl-1,4-dihydropyridine tartrate]			21		
COC(=O)C1=C(C)NC(COCCOCCN)=C(C(=O)OCCCC(C2CC2)C2CC2)C1c1cccc(C(F)(F)F)c1Cl (racemic) [EXAMPLE 36, (4R,S)-2-{[2-(2-Aminoethoxy)ethoxy]methyl}-4-(2-chloro-3-trifluoromethylphenyl)-3-(4,4-dicyclopropylbutyloxycarbonyl)-5-methoxycarbonyl-6-methyl-1,4-dihydropyridine fumarate]			470		
COC(=O)C1=C(C)NC(COCCOCCN)=C(C(=O)OCC(C)C)C1c1cccc(C(F)(F)F)c1Cl (racemic) [EXAMPLE 38, (4R,S)-2-{[2-(2-Aminoethoxy)ethoxy]methyl}-4-(2-chloro-3-trifluoromethylphenyl)-3-isobutyloxycarbonyl-5-methoxycarbonyl-6-methyl-1,4-dihydropyridine fumarate]			61		
C=C(C)COC(=O)C1=C(COCCOCCN)NC(C)=C(C(=O)OC)C1c1cccc(Cl)c1Cl (racemic) [EXAMPLE 39, (4R,S)-2-{[2-(2-Aminoethoxy)ethoxy]methyl}-4-(2,3-dichlorophenyl)-3-[(2-methyl-2-propenyl)oxycarbonyl]-5-methoxycarbonyl-6-methyl-1,4-dihydropyridine fumarate]			80		
CCOC(=O)C1=C(COCCN)NC(C)=C(C(=O)OC)C1c1ccccc1Cl (centres unmarked) [AMLODIPINE, amlodipine, reference compound]	-47	-46		-13	Mean arterial pressure after treatment, Δ mm Hg, 4 h ([3]; 0.5 mg/kg): -28 mm Hg; Mean arterial pressure after treatment, Δ mm Hg, 7 h ([3]; 0.5 mg/kg): -20 mm Hg; Mean arterial pressure after treatment, Δ mm Hg, 24 h ([3]; 0.5 mg/kg): -10 mm Hg; Mean arterial pressure after treatment, Δ mm Hg, 4 h ([3]; 1.0 mg/kg): -45 mm Hg; Mean arterial pressure after treatment, Δ mm Hg, 7 h ([3]; 1.0 mg/kg): -39 mm Hg; Mean arterial pressure after treatment, Δ mm Hg, 24 h ([3]; 1.0 mg/kg): -29 mm Hg; Systolic arterial pressure Δ(mm Hg) 24 h after the last administration of the products, D1 ([4]; day 1): -9 mm Hg; Systolic arterial pressure Δ(mm Hg) 24 h after the last administration of the products, D2 ([4]; day 2): -8 mm Hg; Systolic arterial pressure Δ(mm Hg) 24 h after the last administration of the products, D3 ([4]; day 3): -14 mm Hg; Systolic arterial pressure Δ(mm Hg) 24 h after the last administration of the products, D4 ([4]; day 4): -14 mm Hg; Systolic arterial pressure Δ(mm Hg) 24 h after the last administration of the products, D7 ([4]; day 7): -9 mm Hg
COC(=O)C1=C(C)NC(COCCOCCN)=C(C(=O)OC/C=C/C(C2CC2)C2CC2)C1c1cccc(Cl)c1Cl [EXAMPLE 29, (4R,S)-2-{[2-(2-Aminoethoxy)ethoxy]methyl}-4-(2,3-dichlorophenyl)-3-{[(E)-4,4-dicyclopropyl-2-butene]-oxycarbonyl}-5-methoxycarbonyl-6-methyl-1,4-dihydropyridine tartrate]			75		
COC(=O)C1=C(C)NC(COCCOCCN)=C(C(=O)OC/C=C/C(C2CC2)C2CC2)C1c1cccc(C(F)(F)F)c1Cl [EXAMPLE 37, (4R,S)-2-{[2-(2-Aminoethoxy)ethoxy]methyl}-4-(2-chloro-3-trifluoromethylphenyl)-3-{[(E)-4,4-dicyclopropyl-2-butene]oxycarbonyl}-5-methoxycarbonyl-6-methyl-1,4-dihydropyridine fumarate]			350		
COC(=O)C1=C(C)NC(C)=C(C(=O)OC)C1c1ccccc1[N+](=O)[O-] [NIFEDIPINE, nifedipine, reference compound]	-19	-25			
